Values quoted from earlier work as cited in patent US10351563B2, “Biaryl kinase inhibitors” (BRISTOL-MYERS SQUIBB COMPANY, priority 2014, dated 2019).

Experiments:
AAK1 = AAK1 (Homo sapiens (Human), UniProt Q2M2I8)
HCV = settings: Huh-7.5 cells

Chain of AAK1 (Q2M2I8 whole entry, species assumed): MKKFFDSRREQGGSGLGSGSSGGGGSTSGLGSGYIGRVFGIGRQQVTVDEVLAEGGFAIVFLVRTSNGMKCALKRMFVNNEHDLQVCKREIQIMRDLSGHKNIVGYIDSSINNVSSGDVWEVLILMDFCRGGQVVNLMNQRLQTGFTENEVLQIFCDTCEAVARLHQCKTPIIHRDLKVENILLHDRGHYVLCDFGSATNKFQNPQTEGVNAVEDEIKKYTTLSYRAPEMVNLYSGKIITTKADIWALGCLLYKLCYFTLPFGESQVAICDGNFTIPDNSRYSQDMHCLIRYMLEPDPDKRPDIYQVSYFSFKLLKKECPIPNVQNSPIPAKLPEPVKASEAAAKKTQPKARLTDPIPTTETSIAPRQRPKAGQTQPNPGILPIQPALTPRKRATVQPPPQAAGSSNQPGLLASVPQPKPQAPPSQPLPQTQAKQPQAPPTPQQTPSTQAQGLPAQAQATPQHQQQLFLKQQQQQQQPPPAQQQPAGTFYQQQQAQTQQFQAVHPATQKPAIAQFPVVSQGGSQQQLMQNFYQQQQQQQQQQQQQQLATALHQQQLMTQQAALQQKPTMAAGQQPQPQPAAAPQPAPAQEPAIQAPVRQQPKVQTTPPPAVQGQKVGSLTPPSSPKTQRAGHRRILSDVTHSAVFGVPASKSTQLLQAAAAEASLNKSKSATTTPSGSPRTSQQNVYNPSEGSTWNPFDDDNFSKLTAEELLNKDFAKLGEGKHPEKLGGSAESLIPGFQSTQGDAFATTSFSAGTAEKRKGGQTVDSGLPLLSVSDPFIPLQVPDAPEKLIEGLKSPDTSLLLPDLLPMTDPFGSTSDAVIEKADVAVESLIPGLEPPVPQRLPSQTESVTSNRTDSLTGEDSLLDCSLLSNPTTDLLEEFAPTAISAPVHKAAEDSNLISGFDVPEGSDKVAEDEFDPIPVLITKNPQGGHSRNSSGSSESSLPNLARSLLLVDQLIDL

| Compound | AAK1 kinase activity inhibition (AAK1) | HCV entry (HCV) | HCV virion assembly (HCV) | Neuregulin-1 induced neurite outgrowth (PC12 cells) |
| --- | --- | --- | --- | --- |
| CCN(CC)CCNC(=O)c1c(C)[nH]c(/C=C2\C(=O)Nc3ccc(F)cc32)c1C [sunitinib] | potent AAK1 inhibitor | inhibit HCV entry | reduced HCV virion assembly |  |
| COC(=O)[C@@]1(O)C[C@H]2O[C@]1(C)n1c3ccccc3c3c4c(c5c6ccccc6n2c5c31)C(=O)NC4 [Example K252a, K252a] | inhibits AAK1 kinase activity |  |  | potentiation of Neuregulin-1 induced neurite outgrowth |
